Reference: the NIST ThermoML archive (doi:10.1016/j.fluid.2015.06.041)
Numbers after ± are expanded uncertainties.

How the values were obtained:
[1] = xn = mol fraction of the nth substance listed; conditions: 101 kPa, Liquid, x1 = 1; for viscosity: Capillary tube (Ostwald / Ubbelohde) method; for speed of sound: Frequency=2 MHz, Linear variable-path acoustic interferometer; for mass density: Vibrating tube method
[2] = 101.33 kPa, Liquid; for viscosity: Capillary tube (Ostwald / Ubbelohde) method; for mass density: Vibrating tube method

viscosity ([1]; 298.15 K) [mPa·s] | speed of sound ([1]; 298.15 K) [m/s] | mass density ([1]; 298.15 K) [kg/m3] | viscosity ([1]; 308.15 K) [mPa·s] | mass density ([1]; 308.15 K) [kg/m3] | viscosity ([1]; 318.15 K) [mPa·s] | mass density ([1]; 318.15 K) [kg/m3] | viscosity ([2]; 298.15 K) [mPa·s] | mass density ([2]; 298.15 K) [kg/m3] | viscosity ([2]; 308.15 K) [mPa·s] | mass density ([2]; 308.15 K) [kg/m3] | viscosity ([2]; 318.15 K) [mPa·s] | mass density ([2]; 318.15 K) [kg/m3] | viscosity ([1]; 298.18 K) [mPa·s] | Compound
1.178 ± 0.036 | 1343.4 ± 1.4 | 1027.79 ± 0.11 | 1.009 ± 0.031 | 1016.78 ± 0.11 | 0.8896 ± 0.027 | 1005.24 ± 0.11 |  |  |  |  |  |  |  | C1COCCO1 [1,4-dioxane] + ClCCCl
 |  |  |  |  |  |  | 1.276 ± 0.039 | 894.79 ± 0.23 | 1.107 ± 0.034 | 885.63 ± 0.24 | 0.9445 ± 0.029 | 867.62 ± 0.24 |  | NCCN [ethane-1,2-diamine]
 | 1343.4 ± 1.4 | 1027.79 ± 0.11 | 1.009 ± 0.031 | 1016.78 ± 0.11 | 0.8896 ± 0.027 | 1005.24 ± 0.11 |  |  |  |  |  |  | 1.178 ± 0.036 | C1COCCO1 [1,4-dioxane] + NCCN
 |  |  |  |  |  |  | 1.178 ± 0.036 | 1027.79 ± 0.11 | 1.009 ± 0.031 | 1016.78 ± 0.11 | 0.8896 ± 0.027 | 1005.24 ± 0.11 |  | C1COCCO1 [1,4-dioxane]
1.178 ± 0.036 | 1343.4 ± 1.4 | 1027.79 ± 0.11 | 1.009 ± 0.031 | 1016.78 ± 0.11 | 0.8896 ± 0.027 | 1005.24 ± 0.11 |  |  |  |  |  |  |  | C1COCCO1 [1,4-dioxane] + NCCO
 |  |  |  |  |  |  | 0.7804 ± 0.024 | 1246.37 ± 0.17 | 0.6744 ± 0.021 | 1231.21 ± 0.16 | 0.5719 ± 0.017 | 1214.55 ± 0.16 |  | ClCCCl [1,2-dichloroethane]
 |  |  |  |  |  |  | 18.95 ± 0.58 | 1011.79 ± 0.24 | 11.96 ± 0.37 | 1004.68 ± 0.23 | 7.913 ± 0.24 | 998.15 ± 0.23 |  | NCCO [2-aminoethan-1-ol]
